Assay results taken from US11364275B2, “Linear lipopeptide paenipeptins and methods of using the same” (priority 2017, dated 2022).
In brackets after ≈: the same amount, converted by molar mass. Like-named read-outs stand apart in the source and are kept apart here. Where a SMILES comes first, the peptide text is derived from it. [ ]: non-standard residue; d: D form. The star is where a group is joined. Cha = N[C@@H](CC1CCCCC1)C(=O)O; Heptanoyl = CCCCCCC(=O)*; Octanoyl = CCCCCCCC(=O)*; Dab = NCC[C@H](N)C(=O)O

Experiments:
P. aeruginosa ATCC 27853 = type: cell-based, Pseudomonas aeruginosa
Text: (§1) The surviving cells from each antimicrobial concentration with no visible growth were enumerated by plating on tryptic soy agar (TSA). MBC was defined as the lowest concentration of the antimicrobial agent that led to at least a 99.9% reduction in the number of viable bacterial cells relative to the initial inoculum. There were three independent experiments with one replicate in each experiment.

[1] = test system: Pseudomonas aeruginosa ATCC 27853; type: cell-based; conditions: ATCC 27853
Experimental: (§4) The minimum inhibitory concentration (MIC) of paenipeptin analogues was determined using the broth microdilution method (Wirker, M. A. Methods for Dilution Antimicrobial Susceptibility Tests for Bacteria that Grow Aerobically: Approved Standard M07-A8; Clinical and Laboratory Standards Institute, Wayne, Pa., 2009). Seven reference strains (Acinetobacter baumannii ATCC 19606, Escherichia coli ATCC 25922, Klebsiella pneumoniae ATCC 13883, Pseudomonas aeruginosa ATCC 27853, Enterococcus faecium ATCC 19434, Staphylococcus aureus ATCC 29213 and methicillin-resistant S. aureus ATCC 43300) were subjected to MIC testing.
(§5) Paenipeptin analogues were two-fold diluted in tryptic soy broth (TSB; Becton Dickinson) and mixed with an equal volume of bacterial suspensions in TSB containing approximately 1.5×10^5 colony-forming units (CFU)/mL in a clear UV-sterilized 96-well microtiter plate (NBS, Corning Inc., Corning, N.Y.). […] The microtiter plate was incubated at 37° C. for 18-20 h.

rabbit red blood cells = test: Hemolytic activity; type: cell-based; conditions: for Hemolysis: relative to Triton X-100
Experimental: Hemolytic activity was evaluated using defibrinated rabbit blood in a 96-well plate as described previously. A nonionic surfactant Triton X-100, which is capable of lysing red blood cells (RBCs), was used at 0.1% as a positive control. Briefly, rabbit blood (Hardy Diagnostics, Santa Maria, Calif.) was diluted with phosphate buffered saline (PBS; pH 7.2) at a 1:19 ratio (v/v) and free hemoglobin was removed by washing RBCs and centrifugation four times at 1,000×g at 4° C. for 5 min. Aliquots (50 μL) of washed RBCs were incubated with 150 μL two-fold dilutions of paenipeptin analogues at final concentrations of 16-128 μg/mL at 37° C. for 30 min in a microtiter plate (NBS, Corning Inc.). After incubation, treated RBCs were gently mixed by repeated pipetting. Aliquots (20 μL) of the cell suspension were mixed with 200 μL PBS in a new 96-well plate and centrifuged at 2,204×g for 10 min. The supernatant was transferred to a new 96-well plate for absorbance measurement at 415 nm using a Cell Imaging Multimode Reader (Cytation 3, BioTek; Winooski, Vt.). The percent hemolysis observed after exposure to each paenipeptin analogue was calculated relative to Triton X-100.

[2] = test system: Enterococcus faecium ATCC 19434; type: cell-based; conditions: ATCC 19434
Experimental: as §4, §5

[3] = test system: Escherichia coli ATCC 25922; type: cell-based; conditions: ATCC 25922
S. aureus ATCC 43300 = type: cell-based, Staphylococcus aureus
Text: as §1

S. aureus ATCC 29213 [4] = type: cell-based, Staphylococcus aureus
Text: as §1

[5] = test system: Staphylococcus aureus ATCC 29213; type: cell-based; conditions: ATCC 29213
Experimental: as §4, §5

[6] = test system: Acinetobacter baumannii ATCC 19606; type: cell-based; conditions: ATCC 19606
Experimental: as §4, §5

[7] = test system: methicillin-resistant S. aureus ATCC 43300; type: cell-based, Staphylococcus aureus; conditions: ATCC 43300
Experimental: as §4, §5

S. aureus ATCC 29213 [8] = type: cell-based, Staphylococcus aureus; conditions: ATCC 29213
Experimental: (§2) The impact of human serum on the antibacterial activity of selected paenipeptin analogues was determined using a procedure similar to that used for MIC determination as described above except that the microbiological medium was replaced by human serum (MP Biomedicals, Solon, Ohio). Paenipeptin analogues were two-fold diluted in 100% human serum and mixed with an equal volume of 90% serum containing approximately 1.5×10^5 CFU/mL of E. coli ATCC 25922 or S. aureus ATCC 29213. The final paenipeptin concentrations ranged from 0.5-64 μg/mL in 95% serum. The MIC in the presence of serum was then tested as described above.

K. pneumoniae ATCC 13883 = type: cell-based, Klebsiella pneumoniae
Text: as §1

E. faecium ATCC 19434 = type: cell-based, Enterococcus faecium
Text: as §1

A. baumannii ATCC 19606 = type: cell-based, Acinetobacter baumannii
Text: as §1

[9] = test system: Klebsiella pneumoniae ATCC 13883; type: cell-based; conditions: ATCC 13883
Experimental: as §4, §5

E. coli ATCC 25922 = type: cell-based, Escherichia coli; conditions: ATCC 25922
Experimental: as §2

[10] = test system: Escherichia coli ATCC 25922; type: in vitro ADME
Experimental: To determine the stability of peptides in human serum, paenipeptin analogues were added into 100% human serum to a final concentration of 64 μg/ml. The mixtures were incubated at 37° C. and samples were withdrawn at 0, 6, 12 and 24 h. […] The residual antibacterial activity after incubation in human serum was compared to the non-treated control.

[11] = test system: Klebsiella pneumoniae ATCC 13883; test: MIC of antibiotics with or without paenipeptin analogues (potentiation); type: cell-based; conditions: K. pneumoniae ATCC 13883; for Sensitization factor (clarithromycin): 4 μg/mL paenipeptin
Text: (§3) Gram-negative bacteria, including Acinetobacter and Klebsiella, are intrinsically resistant to the hydrophobic antibiotic rifampicin.

[12] = test system: Acinetobacter baumannii ATCC 19606; test: as above; type: cell-based; conditions: A. baumannii ATCC 19606; for Sensitization factor (clarithromycin) / Sensitization factor (erythromycin): 4 μg/mL paenipeptin
Text: as §3

S. aureus ATCC 29213 [13] = conditions: cited from earlier work

Row | Compound | MBC (P. aeruginosa ATCC 27853) | MIC [1] | Hemolysis (rabbit red blood cells; 16 μg/mL) | Hemolysis (rabbit red blood cells; 32 μg/mL) | Hemolysis (rabbit red blood cells; 64 μg/mL) | Hemolysis (rabbit red blood cells; 128 μg/mL) | MIC [2] | MIC [3] | Minimum inhibitory concentration [3] | MBC (S. aureus ATCC 43300) | MBC (S. aureus ATCC 29213 [4]) | MIC [5] | Minimum inhibitory concentration [5] | MIC [6] | MIC [7] | Minimum inhibitory concentration (S. aureus ATCC 29213 [8]) | MIC [9] | hemolytic activity (in words) (rabbit red blood cells; 128 μg/mL) | Minimum inhibitory concentration (E. coli ATCC 25922) | MIC after incubation in human serum at 37° C. ([10]; ATCC 25922, 0 h) | also measured
1 | CCCCCCC(=O)N[C@@H](CCN)C(=O)N[C@H](C(=O)N[C@@H](CCN)C(=O)N[C@H](Cc1ccccc1)C(=O)N[C@@H](CC(C)C)C(=O)N[C@@H](CCN)C(=O)N[C@H](CC(C)C)C(=O)N[C@@H](CC(C)C)C(=O)N[C@@H](CO)C(N)=O)[C@@H](C)CC [Analogue 5] (Heptanoyl-[Dab]I[Dab][dF]L[Dab][dL]LS-NH2) | 8 to 16 µg/mL | 2 to 4 µg/mL | 0.96 ± 0.59% | 1.39 ± 0.55% | 4.86 ± 1.05% | 26.5 ± 4.45% | 8 to 16 µg/mL | 1 to 4 µg/mL | 1 to 4 µg/mL | 16 to 32 µg/mL | 16 to 32 µg/mL | 16 to 32 µg/mL | 16 to 32 µg/mL | 8 to 16 µg/mL | – | – | – | – | – | – | –
2 | CCCCCCC(=O)N[C@@H](CCN)C(=O)N[C@@H](Cc1ccccc1)C(=O)N[C@@H](CCN)C(=O)N[C@H](Cc1ccccc1)C(=O)N[C@@H](CC(C)C)C(=O)N[C@@H](CCN)C(=O)N[C@H](CC(C)C)C(=O)N[C@@H](CC(C)C)C(=O)N[C@@H](CO)C(N)=O [Analogue 6] (Heptanoyl-[Dab]F[Dab][dF]L[Dab][dL]LS-NH2) | 8 to 16 µg/mL | 2 to 4 µg/mL | 0.14 ± 0.20% | 0.39 ± 0.30% | 2.03 ± 0.44% | 8.34 ± 1.80% | – | 1 to 4 µg/mL | 1 to 4 µg/mL | – | 16 to 32 µg/mL | 16 to 32 µg/mL | 16 to 32 µg/mL | – | 16 to 32 µg/mL | – | – | – | – | – | –
3 | CCCCCCCC(=O)N[C@@H](CCN)C(=O)N[C@H](C(=O)N[C@@H](CCN)C(=O)N[C@H](Cc1ccccc1)C(=O)N[C@@H](CC(C)C)C(=O)N[C@@H](CCN)C(=O)N[C@@H](C(=O)N[C@@H](CC(C)C)C(=O)N[C@@H](CO)C(N)=O)C(C)C)[C@@H](C)CC [Analogue 8, C8-Pat] (Octanoyl-[Dab]I[Dab][dF]L[Dab][dV]LS-NH2) | 8 to 16 µg/mL | – | 0.93 ± 0.45% | 1.91 ± 0.25% | 6.18 ± 2.48% | 25.3 ± 4.15% | – | 2 to 4 µg/mL | 2 to 4 µg/mL | 8 to 32 µg/mL | – | 8 to 16 µg/mL | 8 to 16 µg/mL | – | 8 to 16 µg/mL | 16 to 32 µg/mL | 8 to 16 µg/mL | – | – | – | MBC (K. pneumoniae ATCC 13883): 8 to 16 µg/mL; MBC (E. faecium ATCC 19434): 16 to 32 µg/mL; MBC (A. baumannii ATCC 19606): 16 to 32 µg/mL
4 | CCCCCCCC(=O)N[C@@H](CCN)C(=O)N[C@H](C(=O)N[C@@H](CCN)C(=O)N[C@H](Cc1ccccc1)C(=O)N[C@@H](CC(C)C)C(=O)N[C@@H](CCN)C(=O)N[C@@H](C(=O)N[C@@H](CC(C)C)C(=O)N[C@@H](CCN)C(N)=O)C(C)C)[C@@H](C)CC [Analogue 9] (Octanoyl-[Dab]I[Dab][dF]L[Dab][dV]L[Dab]-NH2) | – | 2 to 4 µg/mL | 0.52 ± 0.58% | 0.80 ± 0.68% | 0.73 ± 0.50% | 2.25 ± 2.18% | – | 4 to 16 µg/mL | 4 to 16 µg/mL | – | – | >32 µg/mL | >32 µg/mL | ≥32 µg/mL | – | – | >32 µg/mL | non-hemolytic | 2 to 4 µg/mL | 1 to 2 µg/mL | MIC after incubation in human serum at 37° C. ([10]; ATCC 25922, 12 h): 1 to 2 µg/mL; MIC of ampicillin in the presence of […] μg/ml paenipeptin analogue [11]: 32 μg/ml; MIC of clarithromycin in the presence of […] μg/ml paenipeptin analogue [11]: 0.0156 μg/ml; MIC of erythromycin in the presence of […] μg/ml paenipeptin analogue [11]: 0.0625 μg/ml; MIC of rifampicin at 4 μg/mL of paenipeptin analogue [11]: <0.00098-0.00195 μg/ml; MIC of vancomycin in the presence of […] μg/ml paenipeptin analogue [11]: 16 μg/ml; Sensitization factor (clarithromycin) [11]: 2,048; MIC of ampicillin in the presence of […] μg/ml paenipeptin analogue [12]: 1-2 μg/ml; MIC of erythromycin in the presence of […] μg/ml paenipeptin analogue [12]: 0.125-0.25 μg/ml; MIC of rifampicin at 2 μg/mL of paenipeptin analogue [12]: 0.0019 μg/ml; MIC of rifampicin at 4 μg/mL of paenipeptin analogue [12]: 0.00195 μg/ml; MIC of vancomycin in the presence of […] μg/ml paenipeptin analogue [12]: 0.25-0.5 μg/ml; Sensitization factor (clarithromycin) [12]: 4,096-8,192; Sensitization factor (erythromycin) [12]: 128-256
5 | CC[C@H](C)[C@H](NC(=O)[C@H](CCN)NC(=O)[C@@H](N)CC1CCCCC1)C(=O)N[C@@H](CCN)C(=O)N[C@H](Cc1ccccc1)C(=O)N[C@@H](CC(C)C)C(=O)N[C@@H](CCN)C(=O)N[C@@H](C(=O)N[C@@H](CC(C)C)C(=O)N[C@@H](CO)C(N)=O)C(C)C [Analogue 16] (H-[Cha][Dab]I[Dab][dF]L[Dab][dV]LS-NH2) | 16 to 32 µg/mL | 2 to 8 µg/mL | 0.55 ± 0.75% | 0.33 ± 0.83% | 0.65 ± 0.62% | 1.63 ± 0.40% | >32 µg/mL | 4 to 8 µg/mL | 4 to 8 µg/mL | – | – | >32 µg/mL | >32 µg/mL | ≥32 µg/mL | – | >64 µg/mL | – | non-hemolytic | 2 µg/mL (≈ 1.75 µM) | 1 to 2 µg/mL | MIC after incubation in human serum at 37° C. [10]: > 32 µg/mL; MIC after incubation in human serum at 37° C. ([10]; ATCC 25922, 12 h): >32 µg/mL; MIC after incubation in human serum at 37° C. ([10]; ATCC 25922, 24 h): >32 µg/mL; MIC of ampicillin in the presence of […] μg/ml paenipeptin analogue [11]: 32 μg/ml; MIC of erythromycin in the presence of […] μg/ml paenipeptin analogue [11]: 0.0625 μg/ml; MIC of rifampicin at 2 μg/mL of paenipeptin analogue [11]: 0.0039 μg/ml; MIC of rifampicin at 4 μg/mL of paenipeptin analogue [11]: <0.00098-0.00195 μg/ml; MIC of vancomycin in the presence of […] μg/ml paenipeptin analogue [11]: >32 μg/ml; Sensitization factor (clarithromycin) [11]: 2,048-4,096; MIC of ampicillin in the presence of […] μg/ml paenipeptin analogue [12]: 8-16 μg/ml; MIC of clarithromycin in the presence of […] μg/ml paenipeptin analogue [12]: 0.0156 μg/ml; MIC of erythromycin in the presence of […] μg/ml paenipeptin analogue [12]: 0.5 μg/ml; MIC of rifampicin at 2 μg/mL of paenipeptin analogue [12]: 0.0039-0.0078 μg/ml; MIC of vancomycin in the presence of […] μg/ml paenipeptin analogue [12]: 0.5-1 μg/ml; Sensitization factor (clarithromycin) [12]: 2,048; Sensitization factor (erythromycin) [12]: 64; Sensitization factor (rifampicin) ([12]; MIC without / with 4 μg/mL paenipeptin): 4,096
6 | MX-2401 | – | – | – | – | – | – | – | – | – | – | – | – | – | – | – | – | – | – | – | – | MIC (S. aureus ATCC 29213 [13]; 95% mouse serum): 128 µg/mL; MIC (S. aureus ATCC 29213 [13]; microbiological medium): 2 µg/mL
